Earlier results on two compounds are cited in paper PMC9798770 (ACS Omega, 2022).

Molecules are shown by their SMILES.

This data set relates to SARS-CoV-2.

In general, EC50 refers to the midpoint of the concentration-response curve. Regarding `Cc1ccc(N)cc1C(=O)N[C@H](C)c1cccc2ccccc12` [GRL0617], the EC50 (read-out: EC50, antiviral activity) is ~20 µM.
As for `C[C@H](c1cccc2ccccc12)N(C)Cc1ccc(O)cc1` [Jun9-72-2], the “antiviral activity compared with GRL0617” value is listed as “higher”.
